Assay results: patent US4110345A, “2,2-Difluoro-1,3-benzodioxole-5-(α-alkyl)-acetic acids, and their use for the preparation of insecticides and acaricides” (American Cyanamid Company, priority 1977, dated 1978)
Like-named read-outs stand apart in the source and are kept apart here.

Columns and labels:
[1] = system: Third-Instar Tobacco Budworm Larvae; assay: whole plant or invertebrate; type: in vivo; conditions: Heliothis virescens, in Gossypium hirsutum, foliar, 72 h, larval counts after 72 hours; for mortality at 30 ppm: read-out: Average % Mortality, 30 ppm; for mortality at 100 ppm: read-out: Average % Mortality, 100 ppm; for mortality at 300 ppm: read-out: Average % Mortality, 300 ppm; for mortality at 900 ppm: read-out: Average % Mortality, 900 ppm
Text: Residual insecticidal activity obtained with foliar treatment of cotton plants Young cotton plants with at least two expanded true leaves growing in 10 cm plastic pots were dipped, usually one leaf at a time in a 65% acetone-35% water solution of test compound with agitation for three seconds. The concentration of the compound in the solutions was 30 ppm, 100 ppm, 300 ppm or 900 ppm of active ingredient. After the leaves had dried, two leaves from each of two plants were excised and placed in petri dishes (90 mm × 100 mm) on moist filter paper (9 cm Whatman No. 1). Five third-instar tobacco budworm larvae were placed on each leaf and the petri dish capped. The infested dishes were than placed in a holding room with continuous light, ambient temperature of 80° F and 50% r.h. Larval counts were made after 72 hours. The remaining plants were placed under high intensity lights in the greenhouse adjusted to provide 14 hours of light per day. Leaf samples were assayed with third instar tobacco budworm larvae after 3, 7, 10 and 14 days exposure in the greenhouse. The data obtained are summarized in Table I. |Residual Insecticidal Activity of a Test Compound on Cotton Plants Using |Third-Instar Tobacco Budworm Larvae for Bioassay | * = Average % Mortality 20 TBW/Point

[2] = system: adult Boophilus microplus ticks; assay: whole plant or invertebrate; type: in vivo; conditions: Rhipicephalus microplus, in Bos taurus, topical, 48 h, read-out: Percent Adult Tick Mortality
Procedure: The effectiveness of an acaricide prepared from the novel 2,2-difluoro-1,3-dioxole-5-(α-alkyl)acetic acids of the present invention for the control of adult Boophilus microplus ticks is determined in the following test wherein the test compound is dissolved in 10% acetone-90% water mixture in sufficient amounts to give solutions containing […] ppm of test compound.
Adult engorged female ticks are dipped in the test solutions for 3 seconds and placed in individual containers and held for 48 hours in a room maintained at 80° F and 50% r.h. At the end of the holding period the ticks are examined and egg deposits counted. […]
Percent Adult Tick Mortality

`CC(C)C(C(=O)OC(C#N)c1cccc(Oc2ccccc2)c1)c1ccc2c(c1)OC(F)(F)O2` (stereo not shown) [drawing 6] was tested, and the mortality at 30 ppm ([1]; 0 days residual) was 45%, the mortality at 30 ppm ([1]; 3 days residual) was 0% and the mortality at 30 ppm ([1]; 7 days residual) was 10%. For the same molecule, the mortality at 30 ppm ([1]; 10 days residual) was 10%, the mortality at 30 ppm ([1]; 14 days residual) was 10% and the mortality at 100 ppm ([1]; 0 days residual) was 90%. The mortality at 100 ppm ([1]; 3 days residual) was 55%, the mortality at 100 ppm ([1]; 7 days residual) was 55% and the mortality at 100 ppm ([1]; 10 days residual) was 65%. The mortality at 100 ppm ([1]; 14 days residual) was 10%, the mortality at 300 ppm ([1]; 0 days residual) was 95% and the mortality at 300 ppm ([1]; 3 days residual) was 90%. The mortality at 300 ppm ([1]; 7 days residual) was 100%, the mortality at 300 ppm ([1]; 10 days residual) was 90% and the mortality at 300 ppm ([1]; 14 days residual) was 95%. The mortality at 900 ppm ([1]; 0 days residual) was 100%, the mortality at 900 ppm ([1]; 3 days residual) was 100% and the mortality at 900 ppm ([1]; 7 days residual) was 100%. It also gave a mortality at 900 ppm ([1]; 10 days residual) of 100% and a mortality at 900 ppm ([1]; 14 days residual) of 100%.
`CC(C)C(C(=O)OC(C#N)c1cccc(Oc2ccccc2)c1)c1ccc2c(c1)OC(F)(F)O2` (stereo not shown) [drawing 7] was tested, and the mortality at 7.3 ppm [2] was 80.2%, the mortality at 15.6 ppm [2] was 85.8% and the mortality at 31.2 ppm [2] was 88.4%. It also gave a mortality at 62.5 ppm [2] of 99.7% and a mortality at 125 ppm [2] of 98.3%.
